From patent publication US20240132431A1, “METHOD FOR ALKYLATING ACIDIC FUNCTIONAL GROUP” (Chugai Seiyaku Kabushiki Kaisha, priority 2021, published 2024)

Target: T1, Bcl-2 protein (Recombinant Human Bcl-2 Protein) (Homo sapiens, UniProt P10415)
T1 construct: purchased Novus NBP2-34889
Assay: Binding evaluation of mixture library compounds to Bcl-2 using AS-MS (affinity selection mass spectrometry)
Summary of the method: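 Affinity selection MS: Bcl-2 20 μM + 1200-cpd mixture, […]/cpd, Tris pH 7.4 buffer w/ Tween-20, DTT; 1 h 23° C dark; P-2 spin SEC; MeCN/MeOH extraction; RP LC/MS. ASMS Ratio(%) = (A−C)/B×100.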

T1 sequence (P10415 whole entry): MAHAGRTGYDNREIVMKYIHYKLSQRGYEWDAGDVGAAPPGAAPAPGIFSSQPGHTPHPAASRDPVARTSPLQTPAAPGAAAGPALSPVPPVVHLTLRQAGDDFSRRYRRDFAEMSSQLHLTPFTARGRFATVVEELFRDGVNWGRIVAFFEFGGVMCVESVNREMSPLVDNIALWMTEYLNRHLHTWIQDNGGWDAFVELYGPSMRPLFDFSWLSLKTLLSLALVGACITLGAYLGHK

SMILES	ASMS ratio (%) (n = 1)	ASMS ratio (%) (n = 2)
CCOc1cncc(C#Cc2cc(C(=O)N3CCN(c4ccc(C(=O)NS(=O)(=O)C(C)(C)C)nn4)CC3)cc(C(F)(F)F)c2)c1 [B2L020-01, N-tert-Butylsulfonyl-6-[4-[3-[2-(5-ethoxypyridin-3-yl)ethynyl]-5-(trifluoromethyl)benzoyl]piperazin-1-yl]pyridazine-3-carboxamide]	0.0	0.0
CCOc1cccc(-c2cnn(-c3cc(C(=O)N4CCN(c5ccc(C(=O)NS(=O)(=O)C(C)(C)C)nn5)CC4)cc(C(F)(F)F)c3)c2)c1 [B2L021-01, N-tert-Butylsulfonyl-6-[4-[3-[4-(3-ethoxyphenyl)pyrazol-1-yl]-5-(trifluoromethyl)benzoyl]piperazin-1-yl]pyridazine-3-carboxamide]	0.0	−14.9
CCOc1cncc(-c2cnn(-c3cc(C(=O)N4CCN(c5ccc(C(=O)NS(=O)(=O)C(C)(C)C)nn5)CC4)cc(C(F)(F)F)c3)c2)c1 [B2L022-01, N-tert-Butylsulfonyl-6-[4-[3-[4-(5-ethoxypyridin-3-yl)pyrazol-1-yl]-5-(trifluoromethyl)benzoyl]piperazin-1-yl]pyridazine-3-carboxamide]	0.0	0.0
CCOc1cncc(-c2ccc(C(=O)N3CCN(c4ccc(C(=O)NS(=O)(=O)C(C)(C)C)cc4)CC3)cc2C)c1 [B2L026-01, N-tert-Butylsulfonyl-4-[4-[4-(5-ethoxypyridin-3-yl)-3-methylbenzoyl]piperazin-1-yl]benzamide]	0.0	0.0
CCOc1cccc(C#Cc2ccccc2C(=O)N2CCN(c3ccc(C(=O)NS(=O)(=O)C(C)(C)C)cc3)CC2)c1 [B2L029-01, N-tert-Butylsulfonyl-4-[4-[2-[2-(3-ethoxyphenyl)ethynyl]benzoyl]piperazin-1-yl]benzamide]	0.0	–
CCOc1cncc(C#Cc2cncc(C(=O)N3CCN(c4ccc(C(=O)NS(=O)(=O)C(C)(C)C)cc4)CC3)c2)c1 [B2L032-01, N-tert-Butylsulfonyl-4-[4-[5-[2-(5-ethoxypyridin-3-yl)ethynyl]pyridine-3-carbonyl]piperazin-1-yl]benzamide]	0.0	−1.0
CCOc1cncc(-c2ccccc2CCC(=O)N2CCN(c3ccc(C(=O)NS(=O)(=O)C(C)(C)C)cc3)CC2)c1 [B2L034-01, N-tert-Butylsulfonyl-4-[4-[3-[2-(5-ethoxypyridin-3-yl)phenyl]propanoyl]piperazin-1-yl]benzamide]	1.6	3.5
CCOc1cccc(-c2ccc(C(=O)N3CCN(c4ccc(C(=O)NS(=O)(=O)C(C)(C)C)cc4)CC3)c3ccccc23)c1 [B2L035-01, N-tert-Butylsulfonyl-4-[4-[4-(3-ethoxyphenyl)naphthalene-1-carbonyl]piperazin-1-yl]benzamide]	0.0	–
CCOc1cncc(-c2ccc(C(=O)N3CCN(c4ccc(C(=O)NS(=O)(=O)C(C)(C)C)cc4)CC3)c3ccccc23)c1 [B2L036-01, N-tert-Butylsulfonyl-4-[4-[4-(5-ethoxypyridin-3-yl)naphthalene-1-carbonyl]piperazin-1-yl]benzamide]	0.0	0.0
CCOc1cncc(-c2cc(C(=O)N3CCN(c4ccc(C(=O)NS(=O)(=O)C(C)(C)C)cc4)CC3)cc(C(C)(C)C)c2)c1 [B2L038-01, 4-[4-[3-tert-Butyl-5-(5-ethoxypyridin-3-yl)benzoyl]piperazin-1-yl]-N-tert-butylsulfonylbenzamide]	0.0	0.0
CCOc1cncc(-c2cc(C(=O)N3CCN(c4ccc(C(=O)NS(=O)(=O)C(C)(C)C)cc4)CC3)cc(C(F)(F)F)c2)c1 [B2L040-01, N-tert-Butylsulfonyl-4-[4-[3-(5-ethoxypyridin-3-yl)-5-(trifluoromethyl)benzoyl]piperazin-1-yl]benzamide]	−0.2	1.0
CCOc1cccc(C#Cc2cc(C(=O)N3CCN(c4ccc(C(=O)NS(=O)(=O)C(C)(C)C)cc4)CC3)cc(C(F)(F)F)c2)c1 [B2L041-01, N-tert-Butylsulfonyl-4-[4-[3-[2-(3-ethoxyphenyl)ethynyl]-5-(trifluoromethyl)benzoyl]piperazin-1-yl]benzamide]	0.0	–
CCOc1cncc(C#Cc2cc(C(=O)N3CCN(c4ccc(C(=O)NS(=O)(=O)C(C)(C)C)cc4)CC3)cc(C(F)(F)F)c2)c1 [B2L042-01, N-tert-Butylsulfonyl-4-[4-[3-[2-(5-ethoxypyridin-3-yl)ethynyl]-5-(trifluoromethyl)benzoyl]piperazin-1-yl]benzamide]	0.0	0.0
CCOc1cccc(-c2cnn(-c3cc(C(=O)N4CCN(c5ccc(C(=O)NS(=O)(=O)C(C)(C)C)cc5)CC4)cc(C(F)(F)F)c3)c2)c1 [B2L043-01, N-tert-Butylsulfonyl-4-[4-[3-[4-(3-ethoxyphenyl)pyrazol-1-yl]-5-(trifluoromethyl)benzoyl]piperazin-1-yl]benzamide]	0.0	0.0
CCOc1cccc(-c2ccccc2CN2CCN(c3ccc(C(=O)NS(=O)(=O)C(C)(C)C)cc3)CC2)c1 [B2L045-01, N-tert-Butylsulfonyl-4-[4-[[2-(3-ethoxyphenyl)phenyl]methyl]piperazin-1-yl]benzamide]	0.0	0.0
CCOc1cncc(-c2ccccc2CN2CCN(c3ccc(C(=O)NS(=O)(=O)C(C)(C)C)cc3)CC2)c1 [B2L046-01, N-tert-Butylsulfonyl-4-[4-[[2-(5-ethoxypyridin-3-yl)phenyl]methyl]piperazin-1-yl]benzamide]	0.0	0.0
CCOc1cccc(-c2ccc(CN3CCN(c4ccc(C(=O)NS(=O)(=O)C(C)(C)C)cc4)CC3)cc2C)c1 [B2L047-01, N-tert-Butylsulfonyl-4-[4-[[4-(3-ethoxyphenyl)-3-methylphenyl]methyl]piperazin-1-yl]benzamide]	0.0	0.0
CCOc1cncc(-c2ccc(CN3CCN(c4ccc(C(=O)NS(=O)(=O)C(C)(C)C)cc4)CC3)cc2C)c1 [B2L048-01]	3.9	−5.0
CCOc1cccc(-c2ccc(CN3CCN(c4ccc(C(=O)NS(=O)(=O)C(C)(C)C)cc4)CC3)c(CC)c2)c1 [B2L049-01, N-tert-Butylsulfonyl-4-[4-[[4-(3-ethoxyphenyl)-2-ethylphenyl]methyl]piperazin-1-yl]benzamide]	–	0.0
CCOc1cncc(-c2ccc(CN3CCN(c4ccc(C(=O)NS(=O)(=O)C(C)(C)C)cc4)CC3)c(CC)c2)c1 [B2L050-01]	0.0	0.0

Other lines, results leading:

ASMS ratio (%) (n = 1)	ASMS ratio (%) (n = 2)	SMILES
0.0	0.0	CCOc1cccc(-c2csc(C(=O)N3CCN(c4ccc(C(=O)NS(=O)(=O)C(C)(C)C)cc4)CC3)c2)c1 [B2L023-01, N-tert-Butylsulfonyl-4-[4-[4-(3-ethoxyphenyl)thiophene-2-carbonyl]piperazin-1-yl]benzamide]
0.0	0.0	CCOc1cncc(-c2csc(C(=O)N3CCN(c4ccc(C(=O)NS(=O)(=O)C(C)(C)C)cc4)CC3)c2)c1 [B2L024-01, N-tert-Butylsulfonyl-4-[4-[4-(5-ethoxypyridin-3-yl)thiophene-2-carbonyl]piperazin-1-yl]benzamide]
0.0	0.0	CCOc1cccc(-c2ccc(C(=O)N3CCN(c4ccc(C(=O)NS(=O)(=O)C(C)(C)C)cc4)CC3)cc2C)c1 [B2L025-01, N-tert-Butylsulfonyl-4-[4-[4-(3-ethoxyphenyl)-3-methylbenzoyl]piperazin-1-yl]benzamide]
0.0	0.0	CCOc1cccc(-c2ccc(C(=O)N3CCN(c4ccc(C(=O)NS(=O)(=O)C(C)(C)C)cc4)CC3)cc2F)c1 [B2L027-01, N-tert-Butylsulfonyl-4-[4-[4-(3-ethoxyphenyl)-3-fluorobenzoyl]piperazin-1-yl]benzamide]
0.0	0.0	CCOc1cncc(-c2ccc(C(=O)N3CCN(c4ccc(C(=O)NS(=O)(=O)C(C)(C)C)cc4)CC3)cc2F)c1 [B2L028-01, N-tert-Butylsulfonyl-4-[4-[4-(5-ethoxypyridin-3-yl)-3-fluorobenzoyl]piperazin-1-yl]benzamide]
0.0	0.0	CCOc1cccc(C#Cc2cncc(C(=O)N3CCN(c4ccc(C(=O)NS(=O)(=O)C(C)(C)C)cc4)CC3)c2)c1 [B2L031-01, N-tert-Butylsulfonyl-4-[4-[5-[2-(3-ethoxyphenyl)ethynyl]pyridine-3-carbonyl]piperazin-1-yl]benzamide]
0.0	0.0	CCOc1cccc(-c2ccccc2CCC(=O)N2CCN(c3ccc(C(=O)NS(=O)(=O)C(C)(C)C)cc3)CC2)c1 [B2L033-01, N-tert-Butylsulfonyl-4-[4-[3-[2-(3-ethoxyphenyl)phenyl]propanoyl]piperazin-1-yl]benzamide]
0.0	0.0	CCOc1cccc(-c2cc(C(=O)N3CCN(c4ccc(C(=O)NS(=O)(=O)C(C)(C)C)cc4)CC3)cc(C(C)(C)C)c2)c1 [B2L037-01, 4-[4-[3-tert-Butyl-5-(3-ethoxyphenyl)benzoyl]piperazin-1-yl]-N-tert-butylsulfonylbenzamide]
0.0	0.0	CCOc1cccc(-c2cc(C(=O)N3CCN(c4ccc(C(=O)NS(=O)(=O)C(C)(C)C)cc4)CC3)cc(C(F)(F)F)c2)c1 [B2L039-01, N-tert-Butylsulfonyl-4-[4-[3-(3-ethoxyphenyl)-5-(trifluoromethyl)benzoyl]piperazin-1-yl]benzamide]
